Results reported in patent publication US20220333078A1, “Method for ex vivo expansion CD34+HSPCs into NK cells using an aryl hydrocarbon receptor antagonist” (Stichting Radboud universitair medisch centrum, priority 2015, published 2022).

Key:
[1] = test system: G-CSF mobilized CD34+HSPCs; assay: Ex vivo cytokine-based expansion and NK cell differentiation of G-CSF mobilized peripheral blood CD34+HSPCs with or without 2 μM SR1; design: species or system human
Procedure: (§1) Bone marrow samples were collected from healthy donors after written informed consent. Bone marrow-derived mononuclear cells (BM-MNCs) were isolated by Ficoll-hypaque (1.077 g/mL; GE Healthcare, Uppsala, Sweden) density gradient centrifugation. Peripheral blood-derived mononuclear cells (PB-MNCs) were obtained from aphaeresis material from stem cell donors who were treated with G-CSF (Neupogen®) 10 μg/kg/day subcutaneously for 5 to 6 days, after written informed consent. CD34+HSPCs were isolated using anti-CD34 immunomagnetic beads (Miltenyi Biotech, Bergisch Gladbach, Germany) according to manufacturer's instructions. CD34+HSPCs were directly used for NK cell generation.
CD34+HSPCs were plated into 24-well or 6-well tissue culture plates (Corning Incorporated, Corning, N.Y., USA). Cells were expanded during 9 or 10 days with a high-dose cytokine cocktail (Expansion cocktail I) consisting of 25 ng/mL IL-7 (Immunotools), 25 ng/mL SCF (Immunotools), 25 ng/mL TPO (Cellgenix) and 25 ng/mL Flt3L (Immunotools). From day 9 or 10 until day 14 or 15, TPO was replaced by 20 ng/mL IL-15 (Miltenyi). After day 14 or 15, cell differentiation was initiated by replacing Expansion cocktail I by a new high-dose cytokine cocktail (Differentiation cocktail) consisting of 20 ng/mL IL-7, 20 ng/mL SCF, 20 ng/mL IL-15 and 1000 U/mL IL-2 (Proleukin®; Chiron, München, Germany). Where mentioned, 2 μM StemRegenin1 (SR1; Cellagen Technology, San Diego, Calif., USA) was added to the culture medium (see FIG. 1A). Cells were cultured in Cellgro GMP DC medium (Cellgenix, Freiburg, Germany) supplemented with 10% human serum (HS; Sanquin Bloodbank, Nijmegen, The Netherlands) and a low dose cytokine cocktail consisting of […] G-CSF (Filgrastim, “Neupogen”—Amgen Corp. USA), 10 μg/mL GM-CSF and 50 μg/mL IL-6 (both Immunotools, Friesoythe, Germany). During the first 14 or 15 days of culture, low molecular weight heparin (Clivarin®; Abbott, Wiesbaden, Germany) was added to the medium in a final concentration of 20 μg/mL. Freshly isolated CD34+ cells were plated at a concentration of 1-4E+5/mL. After 3 days of culture, cells were transferred to a new plate in order to deplete for stromal cells. From day 14 or 15 onward, cell counts were kept above 2E+6 cells/mL. Cell cultures were refreshed with at least 30% new medium every 2 to 3 days. Cultures were maintained at 37° C., in 95% humidity, and 5% CO2. NK cells were used in experiments after 5 weeks of culture.
(§2) Cell numbers and expression of cell-surface markers were determined by FCM. Anti-human CD45-ECD (J.33, Beckman Coulter, Woerden, The Netherlands) and anti-CD56-PC7 (HCD56, Biolegend, San Diego, Calif., USA) antibodies were used to follow cell number and NK cell differentiation during culture using the Coulter FC500 flow cytometer (Beckman Coulter). The population of viable CD45+ cells was determined by exclusion of 7-AAD (Sigma, St Louis, Mo., USA) positive cells. For phenotypical analysis, cells were incubated with antibodies in FCM buffer (PBS/0.5% bovine serum albumin (BSA; Sigma) for 30 minutes at 4° C. After washing, cells were resuspended in FCM buffer and analyzed. The following conjugated monoclonal antibodies were used for NK cell phenotyping: anti-NKG2A-PE (Z199; Beckman Coulter), anti-DNAM-1-FITC (DX 11; BD Biosciences Pharmingen, Breda, The Netherlands), anti-CD16-FITC (3G8), anti-CD3-FITC (UCHT1), anti-NKG2D-PE (1D11), anti-NKp30-PE (P30-15), anti-NKp44-PE (P44-8), anti-NKp46-PD (9E5), anti-CD158b-PE (Dx27), anti-CD158e-PE (Dx9), anti-CD158a/h-PE (HP-MA4), anti-CD62L-PE (DREG56), anti-CD253-PE (RIK-2), anti-CXCR3-PE (G025H7), anti-CXCR4-PE (12G5), anti-IgG1-PE (MOPC-21), anti-IgG2a-PE (MOPC-173), anti-IgG2b-PE (MCP-11), anti-IgG1-FITC (MOPC-21; all from Biolegend).

BM-derived CD34+HSPCs = assay: Ex vivo cytokine-based expansion and NK cell differentiation of bone marrow-derived CD34+HSPCs with or without 2 μM SR1; design: species or system human
Procedure: as §1
CD34+HSPCs were plated into 24-well or 6-well tissue culture plates (Corning Incorporated, Corning, N.Y., USA). Cells were expanded during 9 or 10 days with a high-dose cytokine cocktail (Expansion cocktail I) consisting of 25 ng/mL IL-7 (Immunotools), 25 ng/mL SCF (Immunotools), 25 ng/mL TPO (Cellgenix) and 25 ng/mL Flt3L (Immunotools). […]
as §2, with “Anti-human CD45-ECD (J.33, Beckman Coulter, Woerden, The Netherlands) and anti-CD56-PC7 (HCD56, Biolegend, San Diego, Calif., USA) antibodies were used to follow cell number and NK cell differentiation during culture using the Coulter FC500 flow cytometer (Beckman Coulter).” left out

AhR = assay: qRT-PCR of AhRR and NK cell transcription factors in HSPC-NK cultures with or without SR1; type: cell-based, human
Procedure: Total RNA from 0.5-2E+5 cells, collected weekly from HSPC-NK cell cultures, was isolated using the Quick-RNA™ MicroPrep Kit (Zymo Research, CA, USA). Next, cDNA was synthesized using M-MLV-reverse transcriptase (Invitrogen) in a standard reaction as described before, after which real-time PCR was performed using the following Taqman Gene expression assays (Applied Biosystems, Forster City, Calif., USA): AhRR (Hs01005075_m1); TOX (Hs01055573_m1); ID2 (Hs04187239_m1); EOMES (Hs00172872_m1); GATA3 (Hs00231122_m1); SH2D1B (Hs01592483_m1); IFNG (Hs00989291_m1); GZMB (Hs01554355_m1); PRF1 (Hs99999108_m1). For all genes, Ct values were normalized to GAPDH (Hs02758991_g1) by calculating ΔCt=Cttarget gene−CtGAPDH per sample. Finally, gene expression levels were quantified relative to GAPDH as follows: 2^(−[ΔCt]).
After 5 weeks of culture, CD56+ cells were isolated from the total cultured cells. For this purpose cells were stained for 15 minutes at 4° C. using the appropriate concentration of anti-CD56-PEcy7 (CD56-PC7 (HCD56, Biolegend). Cells were washed and resuspended in FACS buffer at a concentration of 1.5E+6/mL, and subsequently sorted at the FACSAria Cell Sorter (BD Biosciences).

CD56+NK cells = assay: FCM phenotype of CD56+NK cells after 35 days of culture; type: cell-based, human; settings: generated in the presence vs absence of SR1
Procedure: as §2

[2] = test system: CD34+ cells enriched from UCB, BM and mobilized blood; assay: SR1-based culture without heparin and low dose cytokines (UCB, BM and mobilized blood CD34+ cells); type: cell-based, human
From the text: Representation of the new ex vivo SR1-based culture protocol used for the generation of NK cells. In the expansion step, CD34+ cells are expanded and differentiated into NK progenitors using SCF, Flt3L, IL-7, TPO and an aryl hydrocarbon antagonist, preferably SR1. Thereafter, NK progenitors are further differentiated using IL-15, IL-12 and/or IL-2.
In earlier studies, we exploited a phased based addition of cytokines in heparin-based basal media (5-7). Heparin is able to bind certain cytokines, reducing their degradation and perhaps presenting them in a more physiological manner. Furthermore, low dose cytokine cocktail containing G-CSF, GM-CSF and IL-6 was being used, which was based on studies using the fetal liver-derived stromal cell line AFT024 [59]. Since we observed that the AhR antagonist is a crucial component for the ex vivo expansion of NK cells from BM and mobilized blood CD34+HSPCs, we investigated whether we could simplify the culture method by leaving out heparine and low dose cytokines G-CSF, GM-SCF and IL-6 that have mainly an effect on myeloid progenitor cells (see FIG. 7).

HSPC-NK cells = assay: Proliferation (CFSE dilution) and viability of HSPC-NK cells cultured 7 days with MPA or CsA; type: cell-based, human
Procedure: HSPC-NK cells were cultured according to our culture protocol for 35 days. After 35 days, NK cells were labeled with 1 μM CFSE as described previously. After staining, cells were resuspended in differentiation medium at a concentration of 2E+6/mL and plated in duplicate in a 96-well plate. […] After 7 days, cells were harvested. The number of viable target cells was quantified by FCM by gating on forward scatter and side scatter and exclusion of 7-AAD positive cells. Proliferation was analyzed by determining the CFSE dilution within CD56+ cells.

K562 cells = assay: K562 killing and IFN-γ production by NK cells cultured in the presence of MPA or CsA; type: cell-based, human
Procedure: Cell lines were labeled with 1 μM carboxyfluorescein diacetate succinimidyl ester (CFSE; Molecular Probes Invitrogen, Eugene, Oreg., USA) and primary AML blasts were labeled with 1.5 μM CFSE, both in a concentration of 1E+7/mL for 10 minutes at 37° C. The reaction was terminated by adding an equal volume of FCS. After washing, cells were resuspended in IMDM/10% FCS to a final concentration of 3E+5/mL. Target cells (3E+4) were co-cultured in triplicate with effector cells at different effector:target (E:T) ratios in a total volume of 200 μL IMDM/10% FCS in 96-wells round-bottom plates (Corning Incorporated). Effector cells and target cells alone were plated out in triplicate as controls. […] Cells were harvested and the number of viable target cells was quantified by FCM by gating on forward scatter and side scatter and exclusion of 7-AAD positive cells. Target cell survival was calculated as follows: % survival=([absolute number of viable CFSE+ target cells co-cultured with NK cells]/[absolute number of viable CFSE+ target cells cultured in medium])×100%. The percentage specific lysis was calculated as follows: % lysis=(100−[% survival]), as described earlier by Jedema et al. Degranulation of NK cells during overnight co-culture was determined as the percentage of CD107a expressing cells measured by FCM. […]

CD34+UCB cells = settings: after 25 days of culture with IL-1β; cited from earlier work
[3] = FACS-sorted CD56+NK cells after 5 weeks, SR1 vs no SR1

CC(C)n1cnc2c(NCCc3ccc(O)cc3)nc(-c3csc4ccccc34)nc21 [SR1, StemRegenin 1]
Mean NK cell yield after 5 weeks of culture ([1]; G-CSF mobilized CD34+ cells, 2 μM SR1, range 115-904 fold, n=10): 235 fold
purity (NK cell differentiation, CD56+) ([1]; G-CSF mobilized CD34+HSPCs, with SR1, 5 weeks): 83%±9%
expansion of CD34+ cells ([1]; PB-derived HSPCs, addition of 2 μM SR1 vs no SR1): strongly enhanced expansion of CD34+ cells
amount of CD3+ T cells ([1]; SR1-based NK cell cultures): 0.1%±0.1%
average expansion of G-CSF-mobilized CD34+ cells ([1]; SR1-based protocol): 268 fold
frequency of CD34+ cells at the end of the culture process ([1]; SR1 cultures): 0.7%±0.4%
remaining non-NK cells: CD14+ and/or CD15+ mature monocytic and myelocytic cells ([1]; SR1 cultures, end of culture): 11%±6%
purity (NK cell differentiation, CD56+) (BM-derived CD34+HSPCs; BM-derived CD34+ cells, with SR1, 5 weeks): 84%±18%
Mean NK cell yield after 5 weeks of culture (BM-derived CD34+HSPCs; BM-derived CD34+HSPCs, 2 μM SR1, range 33-301, n=4): 129 fold
expansion of CD34+ cells (BM-derived CD34+HSPCs; BM-derived HSPCs, addition of 2 μM SR1 vs no SR1): strongly enhanced expansion of CD34+ cells
IFN-γ mRNA expression (AhR; FACS-sorted CD56+NK cells after 5 weeks, not exposed to target cells, SR1 vs no SR1): not increased
GATA-3 and EAT-2 expression (AhR; [3]): similar
GZMB and PERF expression (AhR; [3]): slightly higher, but not significantly increased
TOX, ID2 and EOMES expression (AhR; [3]): did not observe increased expression
AhRR expression relative to GAPDH (AhR; total cells, 2 μM SR1 vs no SR1): efficient down regulation
EOMES expression relative to GAPDH (AhR; total cells, SR1 vs no SR1): upregulated from week three onward
GATA-3 and EAT-2 (SH2D1B) expression relative to GAPDH (AhR; total cells, SR1 vs no SR1): increased in cells cultured in the presence of SR1
ID2 expression relative to GAPDH (AhR; total cells, SR1 vs no SR1): increased from day 14 onwards
TOX expression relative to GAPDH (AhR; total cells, from day 7 onward, SR1 vs no SR1): higher expression
presence of CD62L, CXCR3, DNAM-1 and TRAIL on CD56+ cells (CD56+NK cells): significantly higher
expansion of CD56+NK cells from CD34+ cells ([2]; 2 μM SR1 for 21 days, no heparin, G-CSF, GM-CSF, IL-6): promotes the expansion of CD56+NK cells
remaining non-NK cells, mainly CD14+ monocytic cells ([2]; SR1-based cultures without heparin and low dose cytokines): < 20%

COc1c(C)c2c(c(O)c1C/C=C(\C)CCC(=O)O)C(=O)OC2 [MPA, mycophenolic acid]
proliferation of HSPC-NK cells (HSPC-NK cells; MPA 0.1 μg/ml): already inhibited
NK cell viability (HSPC-NK cells; MPA 0.1 to 10 μg/mL or CsA 0.01 to 1 μg/mL): induced dose-dependent cell death
NK cell-mediated killing of K562 cells (K562 cells; NK cells cultured with drug, overnight, E:T 1:1): impaired killing
IFN-γ production (K562 cells; NK cells incubated with drug, overnight co-culture with K562, E:T 1:1): impaired IFN-γ production

IL-1β: cytokine added at the beginning of CD34+UCB culture in the protocol of Ambrosini et al.
overall percentage of CD56+NK cells expressing CD161, LFA1, NKG2A, NKp46, EOMES and perforin (CD34+UCB cells): < 20%
